{
  "source": "patent US20260258009A1",
  "about": "“3-[(BENZO[D][1,3]DIOXOLANE-4-YL)OXY]PROPYLAMINE HYDROCHLORIDE, OPTICAL ISOMER AND CRYSTAL THEREOF, AND PREPARATION METHOD THEREFOR” (priority 2022, published 2026)",
  "key": {"[1]": {"assay": "Solubility experiment (HPLC, external standard method)", "format": "physicochemical", "settings": "water, 20 °C, water, thermodynamic from solid", "experimental": "The concentrated solution was placed in a 20° C. water bath thermostatic oscillator for overnight oscillation (supersaturation) and filtered. The filtrate was taken, 1 mL of which was precisely measured and placed in a 100 mL volumetric flask. A diluent (water) was added, the mixture was diluted to volume and mixed well, 1 mL of which was precisely measured and placed in a 10 mL volumetric flask. A diluent was added, the mixture was diluted to volume and mixed well as a test sample solution.\nControl substance solution: A proper amount of 5 samples were respectively taken, precisely measured, dissolved in a proper amount of a diluent by ultrasonication, and diluted to give a solution containing about 0.1 mg of the sample per 1 mL. Two duplicate samples were prepared for each batch.\n• (1) Preparation of buffer: About 2.6428 g ammonium sulfate was weighed and dissolved in 1000 mL of water. 2 mL of triethylamine was added, and the pH value was adjusted to 4.0 with dilute sulfuric acid. • (2) Preparation of mobile phase: Methanol-0.02 mol/L ammonium sulfate solution (2 mL triethylamine was added per 1000 mL, and the pH value was adjusted to 4.0 with dilute sulfuric acid) (45:55). 1000 mL was prepared, mixed well, filtered, and used after ultrasonic treatment.\nDetection wavelength: 230 nm; flow rate: 1.0 mL/min; column temperature: 35° C.; sample injection volume: 20 μL; chromatographic column: Agilent Eclipse XDB-C18 chromatographic column (4.6×150 mm, 5 μm); mobile phase: methanol-0.02 mol/L ammonium sulfate solution (2 mL triethylamine was added per 1000 mL, and the pH value was adjusted to 4.0 with dilute sulfuric acid) (45:55).\n20 μL of each solution was precisely measured, and injected separately into a liquid chromatograph. The chromatograms were recorded, and the solubility of the compounds was determined according to an external standard method."}, "ICR mice [2]": {"test_system": "ICR mice", "assay": "Mouse forced swimming test", "format": "in vivo", "settings": "intragastric; for Immobility time: mice, 1 h after administration, mean±SD, n=12; for minimum effective dose (MED) / ED50: mouse forced swimming; for ED50: po, read-out: ED50 (median effective dose, FST-ED50)", "experimental": "SPF grade ICR mice were taken. The animals were grouped by weight, 12 animals per group, and the animals were allowed to acclimate for at least 3 days before behavioural test.\nThe behavioural test was started 1 h after intragastric administration. The mice were placed in a transparent glass cylinder with water (water depth: 15 cm, water temperature: 23-25° C.) and video recorded for 6 min (the background was an LED light panel). At the end of the time, the mice were removed from the water and the next batch of mice was subjected to the behavioural test. Water was changed after every 3 batches of tests. After the test, the video of the behavioural test was derived and the cumulative immobility time of the mice 4 min after the 6 min forced swimming period was analyzed using the Forced Swim Scant 2.0 software.\nThe test results are expressed as mean±SD. Comparisons between each group and the vehicle group were conducted using the t-test. The differences were considered statistically significant when. P<0.05."}, "in vivo [3]": {"assay": "in vivo", "settings": "both sexes, ICR, mouse, in vivo, po", "experimental": "(§1) The dose administered at the time of the formal test was determined based on the dose of the compound in the preliminary experiment that caused 100% and 0% death in mice. In the formal test, ICR mice were taken and randomly grouped, with 10 mice in each group, half male and half female, which were subjected to intragastric administration at 10 mL/kg.\n(§2) From the results of the mouse acute toxicity test, the compound of formula (I) is least toxic. The therapeutic index (TI=LD50/ED50) was calculated based on the results of the mouse acute toxicity and efficacy test."}, "ICR mice [4]": {"test_system": "ICR mice", "assay": "in vivo", "settings": "mouse acute toxicity LD50 / forced swimming ED50", "experimental": "as §1, §2"}, "in vivo [5]": {"assay": "in vivo", "settings": "both, beagle, dog; for half-life: t1/2", "protocol": "Each group had six beagle dogs, half male and half female.\nPreparation of solutions: • 1) Intravenous injection administration: 0.9% Normal saline was used as a vehicle. • 2) Oral administration: According to the dose of 10 mg/kg (based on base), a corresponding mass of the drug was weighed according to the actual weight of the animal, and then filled into a capsule to be administered to the animal."}, "[6]": {"settings": "95% confidence interval of LD50"}, "[7]": {"settings": "Mouse acute toxicity LD50 (median lethal dose)"}},
  "note": "Read-outs that look alike come from different tables or passages of the source.",
  "data": [
    {"compound": "CNCCC(Oc1cccc2c1OCO2)c1ccccc1.Cl", "note": "(stereo not shown) [N-methyl-3-phenyl-3-[(benzo[d][1,3]dioxolan-4-yl)oxy]propylamine hydrochloride]", "values": [
      {"measurement": "solubility", "setting": "[1]; Water, 20° C., overnight oscillation, read-out: Solubility", "result": 1500, "unit": "mg/mL"},
      {"measurement": "Immobility time", "setting": "ICR mice [2]; 0.2 mg/kg", "result": "165.3 ± 37.2", "unit": "s"},
      {"measurement": "Immobility time", "setting": "ICR mice [2]; 0.4 mg/kg", "result": "125.6 ± 53.6", "unit": "s"},
      {"measurement": "Immobility time", "setting": "ICR mice [2]; 0.8 mg/kg", "result": "86.9 ± 53.4", "unit": "s"},
      {"measurement": "Immobility time", "setting": "ICR mice [2]; 1.6 mg/kg", "result": "83.2 ± 52.9", "unit": "s"},
      {"measurement": "Immobility time", "setting": "ICR mice [2]; 15 mg/kg", "result": "64.3 ± 73.7", "unit": "s"},
      {"measurement": "Immobility time", "setting": "ICR mice [2]; 30 mg/kg", "result": "3.7 ± 5.9", "unit": "s"},
      {"measurement": "minimum effective dose (MED)", "setting": "ICR mice [2]", "result": 0.4, "unit": "mg/kg"},
      {"measurement": "ED50", "setting": "ICR mice [2]", "result": 1.81, "unit": "mg/kg"},
      {"measurement": "LD50 at 7 days", "setting": "in vivo [3]; mice, single intragastric administration, observed within 7 days, read-out: Mouse acute toxicity LD50 (median lethal dose)", "result": 112, "unit": "mg/kg"},
      {"measurement": "LD50 at 7 days", "setting": "in vivo [3]; mice, single intragastric administration, read-out: 95% confidence interval of LD50", "result": "102 to 122", "unit": "mg/kg"},
      {"measurement": "TI = LD50/ED50 (therapeutic index)", "setting": "ICR mice [4]", "result": 62.0}
    ]},
    {"compound": "CNCC[C@H](Oc1cccc2c1OCO2)c1ccccc1.Cl", "note": "[(S)—N-methyl-3-phenyl-3-[(benzo[d][1,3]dioxolan-4-yl)oxy]propylamine hydrochloride]", "values": [
      {"measurement": "Immobility time", "setting": "ICR mice [2]; 0.2 mg/kg", "result": "180.4 ± 29.4", "unit": "s"},
      {"measurement": "Immobility time", "setting": "ICR mice [2]; 0.4 mg/kg", "result": "167.5 ± 45.7", "unit": "s"},
      {"measurement": "Immobility time", "setting": "ICR mice [2]; 0.8 mg/kg", "result": "147.0 ± 65.4", "unit": "s"},
      {"measurement": "Immobility time", "setting": "ICR mice [2]; 1.6 mg/kg", "result": "94.1 ± 35.4", "unit": "s"},
      {"measurement": "Immobility time", "setting": "ICR mice [2]; 15 mg/kg", "result": "8.9 ± 8.7", "unit": "s"},
      {"measurement": "Immobility time", "setting": "ICR mice [2]; 30 mg/kg", "result": "6.2 ± 9.7", "unit": "s"},
      {"measurement": "minimum effective dose (MED)", "setting": "ICR mice [2]", "result": 1.6, "unit": "mg/kg"},
      {"measurement": "ED50", "setting": "ICR mice [2]", "result": 1.74, "unit": "mg/kg"},
      {"measurement": "LD50 at 7 days", "setting": "in vivo [3]; [6]", "result": "13.1 to 91.3", "unit": "mg/kg"},
      {"measurement": "LD50 at 7 days", "setting": "in vivo [3]; [7]", "result": 66.8, "unit": "mg/kg"},
      {"measurement": "TI = LD50/ED50 (therapeutic index)", "setting": "ICR mice [4]", "result": 38.4}
    ]},
    {"compound": "CNCC[C@@H](Oc1cccc2c1OCO2)c1ccccc1.Cl", "note": "[Compound of formula I, (R)—N-methyl-3-phenyl-3-[(benzo[d][1,3]dioxolan-4-yl)oxy]propylamine hydrochloride]", "values": [
      {"measurement": "solubility", "setting": "[1]; Solubility", "result": 33.2, "unit": "mg/mL"},
      {"measurement": "Immobility time", "setting": "ICR mice [2]; 0.2 mg/kg", "result": "178.6 ± 17.0", "unit": "s"},
      {"measurement": "Immobility time", "setting": "ICR mice [2]; 0.4 mg/kg", "result": "105.0 ± 72.1", "unit": "s"},
      {"measurement": "Immobility time", "setting": "ICR mice [2]; 0.8 mg/kg", "result": "106.0 ± 59.7", "unit": "s"},
      {"measurement": "Immobility time", "setting": "ICR mice [2]; 1.6 mg/kg", "result": "55.4 ± 41.1", "unit": "s"},
      {"measurement": "Immobility time", "setting": "ICR mice [2]; 15 mg/kg", "result": "13.0 ± 23.3", "unit": "s"},
      {"measurement": "Immobility time", "setting": "ICR mice [2]; 30 mg/kg", "result": "7.6 ± 4.4", "unit": "s"},
      {"measurement": "minimum effective dose (MED)", "setting": "ICR mice [2]", "result": 0.4, "unit": "mg/kg"},
      {"measurement": "ED50", "setting": "ICR mice [2]", "result": 0.96, "unit": "mg/kg"},
      {"measurement": "AUC(0-t)", "setting": "in vivo [5]; iv, 0.3 mg/kg", "result": 117, "unit": "ng·h/mL"},
      {"measurement": "AUC(0-inf)", "setting": "in vivo [5]; iv, 0.3 mg/kg", "result": 119, "unit": "ng·h/mL"},
      {"measurement": "Cmax", "setting": "in vivo [5]; iv, 0.3 mg/kg", "result": 80.4, "unit": "ng/mL"},
      {"measurement": "Tmax", "setting": "in vivo [5]; iv, 0.3 mg/kg", "result": 4.8, "unit": "min"},
      {"measurement": "half-life", "setting": "in vivo [5]; iv, 0.3 mg/kg", "result": 129, "unit": "min"},
      {"measurement": "AUC(0-t)", "setting": "in vivo [5]; po, 1 mg/kg", "result": 100, "unit": "ng·h/mL"},
      {"measurement": "AUC(0-inf)", "setting": "in vivo [5]; po, 1 mg/kg", "result": 102, "unit": "ng·h/mL"},
      {"measurement": "Cmax", "setting": "in vivo [5]; po, 1 mg/kg", "result": 28.9, "unit": "ng/mL"},
      {"measurement": "Tmax", "setting": "in vivo [5]; po, 1 mg/kg", "result": 73.8, "unit": "min"},
      {"measurement": "half-life", "setting": "in vivo [5]; po, 1 mg/kg", "result": 142, "unit": "min"},
      {"measurement": "bioavailability", "setting": "in vivo [5]; po, Bioavailability", "result": 25.7, "unit": "%"},
      {"measurement": "LD50 at 7 days", "setting": "in vivo [3]; [6]", "result": "106 to 125", "unit": "mg/kg"},
      {"measurement": "LD50 at 7 days", "setting": "in vivo [3]; [7]", "result": 116, "unit": "mg/kg"},
      {"measurement": "TI = LD50/ED50 (therapeutic index)", "setting": "ICR mice [4]", "result": 120.4}
    ]}
  ]
}
